{"source": "patent US20150098963A1", "about": "“METHODS AND COMPOSITIONS FOR IMPROVING THE APPEARANCE OF SKIN” (priority 2013, published 2015)", "tested_on": "SIRT6", "test": "SIRT6 expression by immunohistochemistry in Normal Human Epidermal Keratinocytes", "assay_type": "cell-based", "details": "1% and 3% of a 50 ppm peptide solution, 48 h treatment, FIG. 2", "protocol": "SIRT6 is a member of the conserved family of sirtuin proteins which are associated with metabolism and longevity. SIRT6 is a histone 3, lysine 9 (H3K9) deacetylase and is primarily involved in DNA repair and telomere stability. The peptide of (SEQ ID No. 5) Gly-Ala-Gly-Val-Ser-Ala-Glu-NH2 was tested for Sirt6 stimulating activity as follows.\n• Normal Human Epidermal Keratinocytes p3 • EpiLife Medium (Invitrogen) • Human Keratinocyte Growth Supplement (Invitrogen) • 1× Dulbecco's Phosphate Buffered Saline (DPBS) made from: • 10× DPBS (Mediatech) • Distilled, Deionized Water • Peptide of SEQ ID No. 5 • Rabbit polyclonal antibody to Sirt6 (Abcam) • Alexa Fluor 488 donkey anti-rabbit IgG (H+L) (Invitrogen) • Triton-X 100 (Fisher) • Albumin, Bovine (Sigma) • Vectashield with 4′,6-diamidino-2-phenylindole (DAPI) (Vector)\n• 1. Cells were plated into 4 well chamber slides @ 10,000 cells/chamber and incubated at 37° C., 5% CO2 & 95% humidity for 24 hours. • 2. The peptide of SEQ ID No. 5 was prepared as follows: • 2.1. Dissolved 5 mg peptide in 5 ml medium to make a 1000 ppm stock solution. • 2.2. Diluted the stock solution to 50 ppm by combining 400 μl 1000 ppm stock solution with 7.6 ml medium • 2.3. Prepared a 3% of the 50 ppm solution by combining 1.5 ml 50 ppm stock with 48.5 ml medium • 2.4. Prepared a 1% of the 50 ppm solution by combining 0.5 ml 50 ppm stock with […] medium • 3. […]", "note": "Ends that are not written are not given here.", "data": [{"substance": "Gly-Ala-Gly-Val-Ser-Ala-Glu-NH2 (GAGVSAE-NH2) [SEQ ID No. 5]", "values": [{"measurement": "SIRT6 expression", "value": "dose dependent increase in SIRT6 expression"}]}]}
